Test results: patent publication US8877707B2, “Inhibitors of HCV NS5A” (Presidio Pharmaceuticals, Inc., priority 2010, dated 2014)

Test system: HCV genotype 1b replicon in Huh 7 cells
Test: HCV replicon assay (1b_Huh-Luc/Neo-ET cell line, luciferase readout)
Assay type: cell-based
Settings: Hepatitis C virus, Huh-7; HCV 1b replicon; read-out: Inhibition of HCV genotype 1b
Procedure, shortened: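 Replicon level was read as luciferase signal after 72 h compound exposure, triplicate wells, starting the day after cells were plated. Cell line: 1b_Huh-Luc/Neo-ET. Values normalised to control as percent, and EC50 fitted with a variable-slope sigmoid; determinations repeated.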

SMILES	EC50
COC(=O)N[C@H](C(=O)N1CCN(C(=O)OC)C[C@H]1c1ncc(-c2ccc(-c3ccc4cc(-c5cnc([C@@H]6CCCN6C(=O)[C@@H](NC(=O)OC)C6CCOCC6)[nH]5)ccc4n3)cc2)[nH]1)C(C)C [compound 470]	< 1 nM
COC(=O)N[C@H](C(=O)N1CCN(C(=O)OC)C[C@H]1c1ncc(-c2ccc(-c3ccc4cc(-c5cnc([C@@H]6CCCN6C(=O)[C@H](NC(=O)OC)c6ccccc6)[nH]5)ccc4n3)cc2)[nH]1)C(C)C [compound 471]	< 1 nM
COC(=O)N[C@H](C(=O)N1CCN(C(=O)OC)C[C@H]1c1ncc(-c2ccc(-c3ccc4cc(-c5cnc([C@@H]6CCCN6C(=O)[C@H](NC(=O)OC6CCOCC6)c6ccccc6)[nH]5)ccc4n3)cc2)[nH]1)C(C)C [compound 472]	< 1 nM
COC(=O)N[C@H](C(=O)N1CCC[C@H]1c1ncc(-c2ccc3nc(-c4ccc(-c5cnc([C@@H]6CCCN6C(=O)[C@H](NC(=O)OC)c6ccccc6)[nH]5)c(F)c4)ccc3c2)[nH]1)C1CCOCC1 [compound 473]	< 1 nM
COC(=O)N[C@@H](C(=O)N1CCC[C@H]1c1ncc(-c2ccc(-c3ccc4cc(-c5cnc([C@@H]6CCCN6C(=O)[C@H](NC(=O)OC6CCOCC6)c6ccccc6)[nH]5)ccc4n3)cc2F)[nH]1)c1ccccc1 [compound 474]	< 1 nM
COC(=O)N[C@H](C(=O)N1CCC[C@H]1c1ncc(-c2ccc(-c3ccc4cc(-c5cnc([C@@H]6CCCN6C(=O)[C@@H](NC(=O)OC)[C@@H](C)OC)[nH]5)ccc4n3)cc2F)[nH]1)C(C)C [compound 475]	< 1 nM
COC(=O)N[C@H](C(=O)N1CCC[C@H]1c1ncc(-c2cnc(-c3ccc4cc(-c5cnc([C@@H]6CCCN6C(=O)[C@@H](NC(=O)OC)C(C)C)[nH]5)ccc4c3)nc2)[nH]1)C(C)C [compound 476]	< 1 nM
COC[C@H](NC(=O)OC)C(=O)N1CCC[C@H]1c1ncc(-c2ccc3cc(-c4ccc(-c5cnc([C@@H]6CCCN6C(=O)[C@H](NC(=O)OC)c6ccccc6)[nH]5)nn4)ccc3c2)[nH]1 [compound 477]	< 1 nM
COC(=O)N[C@H](C(=O)N1CCC[C@H]1c1ncc(-c2ccc3cc(-c4ccc(-c5cnc([C@@H]6CCCN6C(=O)[C@H](NC(=O)OC)c6ccsc6)[nH]5)cc4)ccc3c2)[nH]1)[C@@H](C)O [compound 478]	< 1 nM
COC(=O)N[C@H](C(=O)N1CCC[C@H]1c1ncc(-c2ccc(-c3ccc4cc(-c5cnc([C@@H]6CCCN6C(=O)[C@@H](NC(=O)OC)[C@@H](C)OC)[nH]5)ccc4c3)nc2)[nH]1)C(C)C [compound 479]	< 1 nM
COC(=O)N[C@H](C(=O)N1CCC[C@H]1c1ncc(-c2ccc3cc(-c4ccc(-c5cnc([C@@H]6CCCN6C(=O)[C@H](NC(=O)OC)c6ccccc6)[nH]5)cn4)ccc3c2)[nH]1)[C@@H](C)OC [compound 480]	< 1 nM
COC(=O)N[C@H](C(=O)N1CCC[C@H]1c1ncc(-c2ccc(-c3ccc4cc(-c5cnc([C@@H]6CCCN6C(=O)[C@@H](NC(=O)OC)[C@@H](C)OC)[nH]5)ccc4c3)cc2)[nH]1)C(C)C [compound 481]	< 1 nM
COC(=O)N[C@H](C(=O)N1CCC[C@H]1c1ncc(-c2ccc(-c3ccc4cc(-c5cnc([C@@H]6CCCN6C(=O)[C@@H](NC(=O)OC)[C@@H](C)OC)[nH]5)ccc4n3)cc2)[nH]1)[C@@H](C)OC [compound 482]	< 1 nM
COC(=O)N[C@H](C(=O)N1CCC[C@H]1c1ncc(-c2ccc(-c3cc4ccc(-c5cnc([C@@H]6CCCN6C(=O)[C@H](NC(=O)OC)c6ccccc6)[nH]5)cc4cn3)cc2)[nH]1)[C@@H](C)OC [compound 483]	< 1 nM
COC(=O)N[C@H](C(=O)N1CCC[C@H]1c1ncc(-c2ccc(-c3cc4ccc(-c5cnc([C@@H]6CCCN6C(=O)[C@H](NC(=O)OC)c6ccccc6)[nH]5)cc4cn3)cc2)[nH]1)[C@@H](C)O [compound 484]	< 1 nM
COC(=O)N[C@@H](C(=O)N1CCC[C@H]1c1ncc(-c2ccc(-c3ccc4cc(-c5cnc([C@@H]6CCCN6C(=O)[C@H](NC(=O)OC)c6ccsc6)[nH]5)ccc4n3)c(F)c2)[nH]1)c1ccccc1 [compound 485]	< 1 nM
C=CC[C@H](NC(=O)OC)C(=O)N1CCC[C@H]1c1ncc(-c2ccc3nc(-c4ccc(-c5cnc([C@@H]6CCCN6C(=O)[C@H](NC(=O)OC)c6ccccc6)[nH]5)cc4F)ccc3c2)[nH]1 [compound 486]	< 1 nM
C#CC[C@H](NC(=O)OC)C(=O)N1CCC[C@H]1c1ncc(-c2ccc3nc(-c4ccc(-c5cnc([C@@H]6CCCN6C(=O)[C@H](NC(=O)OC)c6ccccc6)[nH]5)cc4F)ccc3c2)[nH]1 [compound 487]	< 1 nM
COC(=O)N[C@H](C(=O)N1CCC[C@H]1c1ncc(-c2cnc3cc(-c4ccc(-c5cnc([C@@H]6CCCN6C(=O)[C@@H](NC(=O)OC)[C@@H](C)OC)[nH]5)cc4)ccc3c2)[nH]1)C(C)C [compound 488]	< 1 nM
COC(=O)N[C@H](C(=O)N1CCC[C@H]1c1ncc(-c2ccc3nc(-c4ccc(-c5cnc([C@@H]6CCCN6C(=O)[C@H](NC(=O)OC)c6ccccc6)[nH]5)cc4)ccc3c2)[nH]1)[C@@H](C)OC [compound 489]	< 1 nM

SMILES	EC50
COC(=O)N[C@H](C(=O)N1CCC[C@H]1c1ncc(-c2ccc3nc(-c4ccc(-c5cnc([C@@H]6CCCN6C(=O)[C@H](NC(=O)OC)c6ccccc6)[nH]5)cc4)ccc3c2)[nH]1)[C@@H](C)O [compound 490]	< 1 nM
COC(=O)N[C@@H](C)C(=O)N1CCC[C@H]1c1ncc(-c2ccc3nc(-c4ccc(-c5cnc([C@@H]6CCCN6C(=O)[C@H](NC(=O)OC)c6ccccc6)[nH]5)cc4)ccc3c2)[nH]1 [compound 491]	< 1 nM
CC[C@H](C)[C@H](NC(=O)OC)C(=O)N1CCC[C@H]1c1ncc(-c2ccc3nc(-c4ccc(-c5cnc([C@@H]6CCCN6C(=O)[C@H](NC(=O)OC)c6ccccc6)[nH]5)cc4)ccc3c2)[nH]1 [compound 492]	< 1 nM
COC(=O)N[C@H](C(=O)N1CCC[C@H]1c1ncc(-c2ccc3nc(-c4ccc(-c5cnc([C@@H]6CN(C(C)=O)CCN6C(=O)[C@@H](NC(=O)OC)C(C)C)[nH]5)cc4)ccc3c2)[nH]1)C(C)C [compound 493]	< 1 nM
COC(=O)N[C@@H](C(=O)N1CCC[C@H]1c1ncc(-c2ccc3nc(-c4ccc(-c5cnc([C@@H]6CN(C(C)=O)CCN6C(=O)[C@H](NC(=O)OC)c6ccccc6)[nH]5)cc4)ccc3c2)[nH]1)c1ccccc1 [compound 494]	< 1 nM
COC(=O)N[C@H](C(=O)N1CCN(C(C)=O)C[C@H]1c1ncc(-c2ccc(-c3ccc4cc(-c5cnc([C@@H]6CCCN6C(=O)[C@@H](NC(=O)OC)C6CCOCC6)[nH]5)ccc4n3)cc2)[nH]1)C(C)C [compound 495]	< 1 nM
COC[C@H](NC(=O)OC)C(=O)N1CCC[C@H]1c1ncc(-c2ccc3cc(-c4ccc(-c5cnc([C@@H]6CCCN6C(=O)[C@H](NC(=O)OC)c6cccs6)[nH]5)cc4)ccc3c2)[nH]1 [compound 496]	< 1 nM
COC(=O)N[C@H](C(=O)N1CCC[C@H]1c1ncc(-c2ccc3cc(-c4ccc(-c5cnc([C@@H]6CCCN6C(=O)[C@H](NC(=O)OC)c6cccs6)[nH]5)cc4)ccc3c2)[nH]1)C(C)C [compound 497]	< 1 nM
COC(=O)N[C@H](C(=O)N1CCC[C@H]1c1ncc(-c2ccc3cc(-c4ccc(-c5cnc([C@@H]6CCCN6C(=O)[C@H](NC(=O)OC)c6cccs6)[nH]5)cc4)ccc3c2)[nH]1)C(C)O (stereo partly shown) [compound 498]	< 1 nM
COC(=O)N[C@@H](C)C(=O)N1CCC[C@H]1c1ncc(-c2ccc3cc(-c4ccc(-c5cnc([C@@H]6CCCN6C(=O)[C@H](NC(=O)OC)c6ccccc6)[nH]5)nn4)ccc3c2)[nH]1 [compound 499]	< 1 nM
COC(=O)N[C@H](C(=O)N1CCC[C@H]1c1ncc(-c2ccc3cc(-c4ccc(-c5cnc([C@@H]6CCCN6C(=O)[C@H](NC(=O)OC)c6ccccc6)[nH]5)nn4)ccc3c2)[nH]1)[C@@H](C)OC [compound 500]	< 1 nM
COC(=O)N[C@H](C(=O)N1CCC[C@H]1c1ncc(-c2ccc3cc(-c4ccc(-c5cnc([C@@H]6CCCN6C(=O)[C@H](NC(=O)OC)c6ccccc6)[nH]5)nn4)ccc3c2)[nH]1)[C@@H](C)O [compound 501]	< 1 nM
COC(=O)N[C@@H](C)C(=O)N1CCC[C@H]1c1ncc(-c2ccc3cc(-c4ccc(-c5cnc([C@@H]6CCCN6C(=O)[C@H](NC(=O)OC)c6cccs6)[nH]5)cc4)ccc3c2)[nH]1 [compound 502]	< 1 nM
CC[C@H](C)[C@H](NC(=O)OC)C(=O)N1CCC[C@H]1c1ncc(-c2ccc(-c3ccc4cc(-c5cnc([C@@H]6CCCN6C(=O)[C@@H](NC(=O)OC)[C@@H](C)OC)[nH]5)ccc4c3)cc2)[nH]1 [compound 503]	< 1 nM
COC(=O)N[C@H](C(=O)N1CCC[C@H]1c1ncc(-c2ccc(-c3ccc4cc(-c5cnc([C@@H]6CCCN6C(=O)[C@@H](NC(=O)OC)[C@@H](C)OC)[nH]5)ccc4c3)cc2)[nH]1)C1CCCC1 [compound 504]	< 1 nM
CCC(CC)[C@H](NC(=O)OC)C(=O)N1CCC[C@H]1c1ncc(-c2ccc(-c3ccc4cc(-c5cnc([C@@H]6CCCN6C(=O)[C@@H](NC(=O)OC)[C@@H](C)OC)[nH]5)ccc4c3)cc2)[nH]1 [compound 505]	< 1 nM
COC(=O)N[C@H](C(=O)N1CCC[C@H]1c1ncc(-c2ccc3cc(-c4cnc(-c5cnc([C@@H]6CCCN6C(=O)[C@@H](NC(=O)OC)C(C)C)[nH]5)cn4)ccc3c2)[nH]1)C(C)C [compound 506]	< 1 nM
COC(=O)N[C@@H](C(=O)N1CCC[C@H]1c1ncc(-c2ccc3nc(-c4ccc5nc([C@@H]6CCCN6C(=O)[C@H](NC(=O)OC)c6ccccc6)[nH]c5c4)ccc3c2)[nH]1)c1ccccc1 [compound 507]	< 1 nM
O=C(N[C@@H](C(=O)N1CCC[C@H]1c1ncc(-c2ccc3nc(-c4ccc5nc([C@@H]6CCCN6C(=O)[C@H](NC(=O)OC6CCOCC6)c6ccccc6)[nH]c5c4)ccc3c2)[nH]1)c1ccccc1)OC1CCOCC1 [compound 508]	< 1 nM
COC(=O)N[C@H](C(=O)N1CCC[C@H]1c1nc2ccc(-c3ccc4cc(-c5cnc([C@@H]6CCCN6C(=O)[C@H](NC(=O)OC6CCOCC6)c6ccccc6)[nH]5)ccc4n3)cc2[nH]1)C(C)C [compound 509]	< 1 nM
